# Where two headings read alike, the source gives them in different places.
# Legend:
# [1] = system: Aspergillus phoenicis; test: Minimum inhibitory concentration against fungi, agar incorporation test, strain L; assay type: cell-based; conditions: malt extract/agar
# Summary of the method: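 Agar incorporation test in malt extract agar with compound at final 2, 5, 10, 50 and 100 mg/liter, inoculated dropwise with fungus; value is concentration (mg/liter) inhibiting growth.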
# [2] = system: Pseudomonas aeruginosa; test: Minimum inhibitory concentration against bacteria, strain B; assay type: cell-based; conditions: 24 hours at 30° C.; tested at 100 and 300 mg/liter
# Summary of the method: (§1)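 Overnight cultures diluted 1/1000 in saline, then 1/1000 again into Caso peptone bouillon. Compounds added at 100 and 300 mg/liter; incubation 24 hours at 30° C. with shaking, then growth judged by turbidity.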
# [3] = system: Alternaria alternata; test: Minimum inhibitory concentration against fungi, agar incorporation test, strain N; assay type: cell-based; conditions: malt extract/agar
# Summary of the method: (§2)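 Compounds were incorporated into malt extract agar at final concentrations of 2, 5, 10, 50 and 100 mg/liter. Fungal inoculum was added dropwise as traces, and the MIC was the lowest concentration (mg/liter) that inhibited growth.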
# [4] = system: Alcaligenes denitrificans; test: Minimum inhibitory concentration against bacteria, strain E; assay type: cell-based; conditions: 24 hours at 30° C.; tested at 100 and 300 mg/liter
# Summary of the method: as §1
# [5] = system: Aureobasidium pullulans; test: Minimum inhibitory concentration against fungi, agar incorporation test, strain R; assay type: cell-based; conditions: malt extract/agar
# Summary of the method: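 Compounds incorporated in malt extract agar at final 2, 5, 10, 50 and 100 mg/liter. Agar inoculated dropwise with traces of fungus. Value is the concentration (mg/liter) needed to inhibit growth.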
# [6] = system: Proteus vulgaris; test: Minimum inhibitory concentration against bacteria, strain A; assay type: cell-based; conditions: 24 hours at 30° C.; tested at 100 and 300 mg/liter
# Summary of the method: as §1
# [7] = system: Aureobasidium pullulans; test: Growth on wood; set-up: key: 1: growth on the wood; 2: slight growth on the wood; 3: no growth on the wood; 4: no growth on the wood and an inhibitory zone; conditions: 28°, 4 weeks
# Description: Small blocks of spruce wood, 7×10×10 mm in size, are dried in vacuo. The small blocks are then vacuum-impregnated by keeping them, in vacuo, in 100 ml of distilled water+biocide for 30 minutes and then subjecting them to a pressure treatment (2 atmospheres gauge by means of compressed air) for 18 hours in the water. The pieces of wood treated in this way are first subjected to leaching in running water and are then dried.
# The dried pieces of wood are placed on potato/glucose agar and the wood, as well as the surrounding agar, is inoculated with 0.1 ml of a spore suspension of Aureobasidium pullulans. After incubation at 28° for 4 weeks, the growth is evaluated in accordance with the following rating: […]
# [8] = system: Penicillium funiculosum; test: Minimum inhibitory concentration against fungi, agar incorporation test, strain M; assay type: cell-based; conditions: malt extract/agar
# Summary of the method: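 Compounds incorporated into malt extract agar at final 2, 5, 10, 50 and 100 mg/liter, then inoculated dropwise with fungus. Value is the concentration (mg/liter) inhibiting growth.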
# [9] = system: Chaetomium globosum; test: Minimum inhibitory concentration against fungi, agar incorporation test, strain S; assay type: cell-based; conditions: malt extract/agar
# Summary of the method: as §2
# [10] = system: Artemia salina; test: Action against Artemia salina nauplii; assay type: in vivo; set-up: key: 0: no change; 1: slight change; 1-2: animals are attacked; 2: animals are strongly attacked; 2-3: animals are nearly all dead; 3: animals are all dead
# Description: The eggs, which are available commercially, are caused to hatch by vigorous aeration. When 2-3 days old, the nauplii are exposed to the products at various concentrations (concentrations tested: 2.5; 1; 0.5 and 0.25 mg/liter) in synthetic seawater, and are observed over a prolonged period of time.
# [11] = system: Cladosporium cladosporioides; test: Minimum inhibitory concentration against fungi, agar incorporation test, strain O; assay type: cell-based; conditions: malt extract/agar
# Summary of the method: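 Compounds incorporated into malt extract agar at final concentrations of 2, 5, 10, 50 and 100 mg/liter, with fungal traces added dropwise. Value is the concentration (mg/liter) required to inhibit fungal growth.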
# [12] = system: Enterobacter aerogenes; test: Minimum inhibitory concentration against bacteria, strain C; assay type: cell-based; conditions: 24 hours at 30° C.; tested at 100 and 300 mg/liter
# Summary of the method: as §1
# [13] = system: Aspergillus niger; test: Minimum inhibitory concentration against fungi, agar incorporation test, strain K; assay type: cell-based; conditions: malt extract/agar
# Summary of the method: as §2
# [14] = system: Serratia marcencens; test: Minimum inhibitory concentration against bacteria, strain D; assay type: cell-based; conditions: 24 hours at 30° C.; tested at 100 and 300 mg/liter
# Summary of the method: as §1
# [15] = system: Endomyces geotrichum; test: Minimum inhibitory concentration against fungi, agar incorporation test, strain Q; assay type: cell-based; conditions: malt extract/agar
# Summary of the method: as §2
# [16] = system: mixed culture of bacteria; assay type: cell-based; set-up: key: +: growth, no destruction; (+): growth less than that of control (>10 colonies), slight destruction; (-): slight growth (1-10 colonies); -: no growth, destruction
# [17] = system: Candida albicans; test: Minimum inhibitory concentration against fungi, agar incorporation test, strain P; assay type: cell-based; conditions: malt extract/agar
# Summary of the method: as §2
# [18] = system: Chlorella vulgaris; test: Action against algae: Chlorella vulgaris; assay type: cell-based; set-up: key: --: no growth on the agar, 3 ppm have destroyed the algae in 6 hours; conditions: 3 mg/liter; for Growth on the agar (algae-destroying action): 6 hours exposure, 14 days incubation; for Growth in the medium (growth inhibition): 14 days
# Summary of the method: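 14-day cultures diluted 1/200 in nutrient medium received compound at 3 mg/liter final. After 6 h, samples were spotted on algae/agar for algicidal action; growth inhibition in medium and killing on agar assessed visually after 14 days under 14 h light/10 h dark.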
# [19] = system: Bacillus subtilis; test: Minimum inhibitory concentration against bacteria, strain F; assay type: cell-based; conditions: 24 hours at 30° C.; tested at 100 and 300 mg/liter
# Summary of the method: as §1
# [20] = system: Enteromorpha intestinalis; test: Action against Enteromorpha intestinalis: destruction (minimum killing concentration); assay type: in vivo; conditions: 4 hours in seawater, then 6-8 weeks in fresh seawater
# Description: (§3) The action against the green alga Enteromorpha, which is the most important in seawter fouling, is investigated in sterile-filtered seawater containing an Erd-Schreiber solution. This solution is composed of a nutrient extract, phosphate and nitrate. The incubation of Enteromorpha intestinalis is carried out in a light thermostat at 18° C. under an alternation of 14 hours of light and 10 hours of darkness.
# The algae which have been cultured in this way are exposed to the products under investigation for a short time (4 hours) in seawater. The minimum killing concentration (MKC) is determined by taking the algae out of the seawater containing a specific quantity of algicide, after the treatment time in the latter, washing the algae and investigating growth or mortality after incubation in fresh seawater for a further period of 6-8 weeks.
# The minimum killing concentration (MKC) indicates the amount of substance required to cause such damage to the algae within a specific time that they can no longer recover in fresh seawater and die out.
# [21] = system: Enteromorpha intestinalis; test: Action against Enteromorpha intestinalis: inhibitory concentration (MIC); assay type: in vivo; conditions: seawater containing biocide for entire test; concentration tested 0.5 mg/liter
# Description: as §3
# For determining the inhibitory concentration (MIC), the algae are kept in seawater containing biocide for the entire duration of the test (concentration tested: 0.5 mg/liter).
# [22] = 5 mg/l, culture diluted 1/1000 in Tyrode
# [23] = 5 mg/l, culture diluted 1/10000 in Tyrode
# [24] = 10 mg/l, culture diluted 1/1000 in Tyrode
# [25] = 10 mg/l, culture diluted 1/10000 in Tyrode
# [26] = 30 mg/l, culture diluted 1/1000 in Tyrode
# [27] = 30 mg/l, culture diluted 1/10000 in Tyrode
# [28] = 60 mg/l, culture diluted 1/1000 in Tyrode
# [29] = 60 mg/l, culture diluted 1/10000 in Tyrode
# [30] = 100 mg/l, culture diluted 1/1000 in Tyrode
# [31] = 100 mg/l, culture diluted 1/10000 in Tyrode
compound,measurement,setting,value
"CCCCCCCCCCCC[n+]1ccccc1.CCC[CH2][Sn-]([Cl])([Cl])([CH2]CCC)[CH2]CCC [Example 6, Pyridine-Nlauryl / Tributyldichloro]","MIC against fungi, strain L",[1],2 µg/mL
same,"MIC against bacteria, strain B",[2],100 µg/mL
same,"MIC against fungi, strain N",[3],2 µg/mL
same,"MIC against bacteria, strain E",[4],100 µg/mL
same,"MIC against fungi, strain R",[5],2 µg/mL
same,"MIC against bacteria, strain A",[6],100 µg/mL
same,"growth on wood, leached for 5 days",[7]; 0.01 % in H2 O,4
same,"growth on wood, not leached",[7]; 0.01 % in H2 O,4
same,"growth on wood, leached for 5 days",[7]; 0.05 % in H2 O,4
same,"growth on wood, not leached",[7]; 0.05 % in H2 O,4
same,"MIC against fungi, strain M",[8],5 µg/mL
same,"MIC against fungi, strain S",[9],2 µg/mL
same,Action against Artemia salina,"[10]; 0,5 mg/l, 6 hours",1-2
same,Action against Artemia salina,"[10]; 0,5 mg/l, 24 hours",2-3
same,Action against Artemia salina,"[10]; 0,5 mg/l, 48 hours",3
same,Action against Artemia salina,"[10]; 0,25 mg/l, 6 hours",1
same,Action against Artemia salina,"[10]; 0,25 mg/l, 24 hours",2
same,Action against Artemia salina,"[10]; 0,25 mg/l, 48 hours",2-3
same,Action against Artemia salina,"[10]; 1 mg/l, 6 hours",2
same,Action against Artemia salina,"[10]; 1 mg/l, 24 hours",3
same,Action against Artemia salina,"[10]; 1 mg/l, 48 hours",3
same,Action against Artemia salina,"[10]; 2,5 mg/l, 6 hours",2-3
same,Action against Artemia salina,"[10]; 2,5 mg/l, 24 hours",3
same,Action against Artemia salina,"[10]; 2,5 mg/l, 48 hours",3
same,"MIC against fungi, strain O",[11],2 µg/mL
same,"MIC against bacteria, strain C",[12],100 µg/mL
same,"MIC against fungi, strain K",[13],2 µg/mL
same,"MIC against bacteria, strain D",[14],100 µg/mL
same,"MIC against fungi, strain Q",[15],5 µg/mL
same,Growth (destruction of a mixed culture of bacteria),[16]; [22],+
same,Growth (destruction of a mixed culture of bacteria),[16]; [23],+
same,Growth (destruction of a mixed culture of bacteria),[16]; [24],+
same,Growth (destruction of a mixed culture of bacteria),[16]; [25],+
same,Growth (destruction of a mixed culture of bacteria),[16]; [26],+
same,Growth (destruction of a mixed culture of bacteria),[16]; [27],+
same,Growth (destruction of a mixed culture of bacteria),[16]; [28],+
same,Growth (destruction of a mixed culture of bacteria),[16]; [29],+
same,Growth (destruction of a mixed culture of bacteria),[16]; [30],+
same,Growth (destruction of a mixed culture of bacteria),[16]; [31],+
same,"MIC against fungi, strain P",[17],5 µg/mL
same,Growth on the agar (algae-destroying action),[18],--
same,Growth in the medium (growth inhibition),[18],--
same,"MIC against bacteria, strain F",[19],100 µg/mL
same,"Destruction, 5 mg/liter",[20],yes
same,MIC,[21],0.5 µg/mL
"CCCCCCCCCCCCCC[N+](C)(C)Cc1ccccc1.CCC[CH2][Sn-]([Cl])([Cl])([CH2]CCC)[CH2]CCC [Example 2, dimethyl-benzyl-tetradecylammonium tributyldichlorostannate-(IV)]","MIC against fungi, strain L",[1],2 µg/mL
same,"MIC against bacteria, strain B",[2],100 µg/mL
same,"MIC against fungi, strain N",[3],2 µg/mL
same,"MIC against bacteria, strain E",[4],100 µg/mL
same,"MIC against fungi, strain R",[5],2 µg/mL
same,"MIC against bacteria, strain A",[6],100 µg/mL
same,"growth on wood, leached for 5 days",[7]; 0.01 % in H2 O,4
same,"growth on wood, not leached",[7]; 0.01 % in H2 O,4
same,"growth on wood, leached for 5 days",[7]; 0.05 % in H2 O,4
same,"growth on wood, not leached",[7]; 0.05 % in H2 O,4
same,"MIC against fungi, strain M",[8],2 µg/mL
same,"MIC against fungi, strain S",[9],2 µg/mL
same,Action against Artemia salina,"[10]; 0,5 mg/l, 6 hours",1-2
same,Action against Artemia salina,"[10]; 0,5 mg/l, 24 hours",2-3
same,Action against Artemia salina,"[10]; 0,5 mg/l, 48 hours",3
same,Action against Artemia salina,"[10]; 0,25 mg/l, 6 hours",0-1
same,Action against Artemia salina,"[10]; 0,25 mg/l, 24 hours",2
same,Action against Artemia salina,"[10]; 0,25 mg/l, 48 hours",2-3
same,Action against Artemia salina,"[10]; 1 mg/l, 6 hours",2
same,Action against Artemia salina,"[10]; 1 mg/l, 24 hours",3
same,Action against Artemia salina,"[10]; 1 mg/l, 48 hours",3
same,Action against Artemia salina,"[10]; 2,5 mg/l, 6 hours",2-3
same,Action against Artemia salina,"[10]; 2,5 mg/l, 24 hours",3
same,Action against Artemia salina,"[10]; 2,5 mg/l, 48 hours",3
same,"MIC against fungi, strain O",[11],2 µg/mL
same,"MIC against bacteria, strain C",[12],100 µg/mL
same,"MIC against fungi, strain K",[13],2 µg/mL
same,"MIC against bacteria, strain D",[14],100 µg/mL
same,"MIC against fungi, strain Q",[15],5 µg/mL
same,Growth (destruction of a mixed culture of bacteria),[16]; [22],+
same,Growth (destruction of a mixed culture of bacteria),[16]; [23],+
same,Growth (destruction of a mixed culture of bacteria),[16]; [24],+
same,Growth (destruction of a mixed culture of bacteria),[16]; [25],+
same,Growth (destruction of a mixed culture of bacteria),[16]; [26],"(+) (growth less than that of control (>10 colonies), slight destruction)"
same,Growth (destruction of a mixed culture of bacteria),[16]; [27],-
same,Growth (destruction of a mixed culture of bacteria),[16]; [28],"(+) (growth less than that of control (>10 colonies), slight destruction)"
same,Growth (destruction of a mixed culture of bacteria),[16]; [29],-
same,Growth (destruction of a mixed culture of bacteria),[16]; [30],(-) (slight growth (1-10 colonies))
same,Growth (destruction of a mixed culture of bacteria),[16]; [31],-
same,"MIC against fungi, strain P",[17],5 µg/mL
same,Growth on the agar (algae-destroying action),[18],--
same,Growth in the medium (growth inhibition),[18],--
same,"MIC against bacteria, strain F",[19],100 µg/mL
same,"Destruction, 5 mg/liter",[20],yes
same,MIC,[21],0.5 µg/mL

# Source: patent US4578489A (priority 1982, dated 1986)
